This note sets out measurements from patent US12391737B2, “Soluble NPY2 receptor agonists” (Boehringer Ingelheim International GmbH, priority 2020, dated 2025).

One series is described as follows: Solubility determination. The note with it: for Sol6: pH 6; for Sol7: pH 7. The method, boiled down: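 Solubility is derived from the ratio of reversed-phase peak areas, filtered sample over a control dissolved at 1 mg/ml in 50% acetonitrile. Peptides are agitated for 2 hours at room temperature in 0.1 M sodium diphosphate at pH 6.4 or 7.0, aiming at 10 mg/ml.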

Series [1] deals with T1, Human Neuropeptide Y2 Receptor (Homo sapiens, UniProt P49146).
T1 construct: purchased CHEMICON HTS066M
T1 sequence (P49146 1-381): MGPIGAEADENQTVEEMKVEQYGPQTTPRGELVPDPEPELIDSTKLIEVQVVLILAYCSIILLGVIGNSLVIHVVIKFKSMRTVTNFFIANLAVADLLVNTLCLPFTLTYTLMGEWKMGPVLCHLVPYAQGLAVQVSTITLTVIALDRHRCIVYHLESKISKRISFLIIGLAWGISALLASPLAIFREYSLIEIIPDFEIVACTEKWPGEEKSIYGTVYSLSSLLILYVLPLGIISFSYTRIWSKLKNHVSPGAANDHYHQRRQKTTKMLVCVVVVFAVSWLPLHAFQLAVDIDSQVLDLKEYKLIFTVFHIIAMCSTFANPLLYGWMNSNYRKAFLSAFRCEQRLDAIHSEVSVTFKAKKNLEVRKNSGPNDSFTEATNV
The experiment in a line: Radioligand binding competition assay (RLB). The note with it: Table 3, 125I-PYY(1-36) competition; read-out: Ki. The gist of the method:
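Receptor membranes, 0.5 μg/well; buffer 50 mM HEPES/5 mM MgCl2/1 mM CaCl2/0.2% ovalbumin, pH 7.4; 2 h RT, shaking. GF/C filtration, cold HEPES/500 mM NaCl wash, scintillation count. IC50 by nonlinear regression.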

As usually defined, the Ki is the equilibrium dissociation constant of an inhibitor or competing ligand from its target. With `CC[C@H](C)[C@H](NC(=O)[C@H](CCC(=O)O)NC(=O)[C@H](CCC(=O)O)NC(=O)[C@@H]1CCCN1C(=O)[C@@H](NC(=O)[C@H](C)NC(=O)[C@H](CC(=O)O)NC(=O)[C@H](CCC(=O)O)NC(=O)[C@H](CCC(=O)O)NC(=O)[C@@H]1CCCN1C(=O)[C@H](CCCCNC(=O)CCCCCNC(=O)CC[C@H](NC(=O)CCCCCCCCCCCCCCCCC(=O)O)C(=O)O)NC(=O)[C@H](CCC(=O)O)NC(=O)[C@@H]1CCCN1C(=O)[C@H](C)NC(=O)CC(C)C)[C@@H](C)O)C(=O)N[C@@H](CCC(N)=O)C(=O)N[C@@H](CCCNC(=N)N)C(=O)N[C@@H](Cc1ccc(O)cc1)C(=O)N[C@@H](Cc1ccc(O)cc1)C(=O)N[C@@H](CC(C)C)C(=O)N[C@@H](CO)C(=O)N[C@@H](CC(C)C)C(=O)N[C@@H](CCCNC(=N)N)C(=O)N[C@@H](Cc1c[nH]cn1)C(=O)N[C@@H](Cc1ccc(O)cc1)C(=O)N[C@@H](Cc1ccc(O)cc1)C(=O)N[C@@H](CC(N)=O)C(=O)N[C@@H](Cc1c[nH]c2ccccc12)C(=O)N[C@@H](CC(C)C)C(=O)N[C@H](C(=O)N[C@@H](CCCNC(=N)N)C(=O)N[C@@H](CCC(N)=O)C(=O)N[C@@H](CCCNC(=N)N)C(=O)N[C@@H](Cc1ccc(O)cc1)C(N)=O)[C@@H](C)O` [Compound 97, N{alpha-4}-(3-methylbutanoyl)-N{epsilon-7}-(6-[(4S)-4-carboxy-4-(17-carboxyheptadecanamido)butanamido]hexanoyl)-[4A,7K,9E,13T,17I,18Q,22L,28Y,30W,31L]-hPYY(4-36)], in the series “Solubility determination”, the “Sol6” value is over 10.0 mg/mL and the “Sol7” value is over 10.0 mg/mL. For the same molecule, the Ki in series [1] was determined as 4.23 nM.

In the case of `CC(C)CC(=O)N[C@@H](C)C(=O)N1CCC[C@H]1C(=O)N[C@@H](CCC(=O)O)C(=O)N[C@@H](CCCCNC(=O)CCCCCNC(=O)CC[C@H](NC(=O)CCCCCCCCCCCCCCCCC(=O)O)C(=O)O)C(=O)N1CCC[C@H]1C(=O)N[C@@H](CCC(=O)O)C(=O)N[C@@H](CCC(=O)O)C(=O)N[C@@H](CC(=O)O)C(=O)N[C@@H](C)C(=O)N[C@H](C(=O)N1CCC[C@H]1C(=O)N[C@@H](CCC(=O)O)C(=O)N[C@@H](CCC(=O)O)C(=O)N[C@@H](CO)C(=O)N[C@@H](CCC(N)=O)C(=O)N[C@@H](CCCNC(=N)N)C(=O)N[C@@H](Cc1ccc(O)cc1)C(=O)N[C@@H](Cc1ccc(O)cc1)C(=O)N[C@H](C(=O)N[C@@H](CO)C(=O)N[C@@H](CC(C)C)C(=O)N[C@@H](CCCNC(=N)N)C(=O)N[C@@H](Cc1c[nH]cn1)C(=O)N[C@@H](Cc1ccc(O)cc1)C(=O)N[C@@H](Cc1ccc(O)cc1)C(=O)N[C@@H](CC(N)=O)C(=O)N[C@@H](Cc1c[nH]c2ccccc12)C(=O)N[C@@H](CC(C)C)C(=O)N[C@H](C(=O)N[C@@H](CCCNC(=N)N)C(=O)N[C@@H](CCC(N)=O)C(=O)N[C@@H](CCCNC(=N)N)C(=O)N[C@@H](Cc1ccc(O)cc1)C(N)=O)[C@@H](C)O)C(C)C)[C@@H](C)O` [Compound 119, N{alpha-4}-(3-methylbutanoyl)-N{epsilon-7}-(6-[(4S)-4-carboxy-4-(17-carboxyheptadecanamido)butanamido]hexanoyl)-[4A,7K,9E,13T,17S,18Q,22V,28Y,30W,31L]-hPYY(4-36)], in “Solubility determination”, the “Sol6” value was 9.3 mg/mL and the “Sol7” value was determined as 9.1 mg/mL. For the same molecule, the inhibition constant (Ki) in series [1] was 5.73 nM.

With `CC[C@H](C)[C@H](NC(=O)[C@H](Cc1ccc(O)cc1)NC(=O)[C@H](Cc1ccc(O)cc1)NC(=O)[C@H](CCCNC(=N)N)NC(=O)[C@H](CCC(N)=O)NC(=O)[C@H](CC(C)C)NC(=O)[C@H](CCC(=O)O)NC(=O)[C@H](CCC(=O)O)NC(=O)[C@@H]1CCCN1C(=O)[C@@H](NC(=O)[C@H](C)NC(=O)[C@H](CC(=O)O)NC(=O)[C@H](CCC(=O)O)NC(=O)[C@H](CCC(=O)O)NC(=O)[C@@H]1CCCN1C(=O)[C@H](CCCCNC(=O)CCCCCNC(=O)CC[C@H](NC(=O)CCCCCCCCCCCCCCCCC(=O)O)C(=O)O)NC(=O)[C@H](C)NC(=O)[C@@H]1CCCN1C(=O)[C@H](C)NC(=O)CC(C)C)[C@@H](C)O)C(=O)N[C@@H](CO)C(=O)N[C@@H](CC(C)C)C(=O)N[C@@H](CCCNC(=N)N)C(=O)N[C@@H](Cc1c[nH]cn1)C(=O)N[C@@H](Cc1ccc(O)cc1)C(=O)N[C@@H](Cc1ccc(O)cc1)C(=O)N[C@@H](CC(N)=O)C(=O)N[C@@H](Cc1c[nH]c2ccccc12)C(=O)N[C@@H](CC(C)C)C(=O)N[C@H](C(=O)N[C@@H](CCCNC(=N)N)C(=O)N[C@@H](CCC(N)=O)C(=O)N[C@@H](CCCNC(=N)N)C(=O)N[C@@H](Cc1ccc(O)cc1)C(N)=O)[C@@H](C)O` [Compound 190, N{alpha-4}-(3-methylbutanoyl)-N{epsilon-7}-(6-[(4S)-4-carboxy-4-(17-carboxyheptadecanamido)butanamido]hexanoyl)-[4A,6A,7K,9E,13T,18Q,22I,28Y,30W,31L]-hPYY(4-36)], in “Solubility determination”, the “Sol6” value is 8.4 mg/mL and the “Sol7” value was 8.4 mg/mL. The Ki in series [1] turned out to be 1.95 nM.

With `CC(C)CC(=O)N[C@@H](C)C(=O)N1CCC[C@H]1C(=O)N[C@@H](CCC(=O)O)C(=O)N[C@@H](CCCCNC(=O)CCCCCNC(=O)CC[C@H](NC(=O)CCCCCCCCCCCCCCCCC(=O)O)C(=O)O)C(=O)N1CCC[C@H]1C(=O)N[C@@H](CCC(=O)O)C(=O)N[C@@H](CCC(=O)O)C(=O)N[C@@H](CC(=O)O)C(=O)N[C@@H](CO)C(=O)N[C@H](C(=O)N1CCC[C@H]1C(=O)N[C@@H](CCC(=O)O)C(=O)N[C@@H](CCC(=O)O)C(=O)N[C@@H](CC(C)C)C(=O)N[C@@H](CCC(N)=O)C(=O)N[C@@H](CCCNC(=N)N)C(=O)N[C@@H](Cc1ccc(O)cc1)C(=O)N[C@@H](Cc1ccc(O)cc1)C(=O)N[C@H](C(=O)N[C@@H](CO)C(=O)N[C@@H](CC(C)C)C(=O)N[C@@H](CCCNC(=N)N)C(=O)N[C@@H](Cc1c[nH]cn1)C(=O)N[C@@H](Cc1ccc(O)cc1)C(=O)N[C@@H](Cc1ccc(O)cc1)C(=O)N[C@@H](CC(N)=O)C(=O)N[C@@H](Cc1c[nH]c2ccccc12)C(=O)N[C@@H](CC(C)C)C(=O)N[C@H](C(=O)N[C@@H](CCCNC(=N)N)C(=O)N[C@@H](CCC(N)=O)C(=O)N[C@@H](CCCNC(=N)N)C(=O)N[C@@H](Cc1ccc(O)cc1)C(N)=O)[C@@H](C)O)C(C)C)[C@@H](C)O` [Compound 143, N{alpha-4}-(3-methylbutanoyl)-N{epsilon-7}-(6-[(4S)-4-carboxy-4-(17-carboxyheptadecanamido)butanamido]hexanoyl)-[4A,7K,9E,12S,13T,18Q,22V,28Y,30W,31L]-hPYY(4-36)], in the series “Solubility determination”, the “Sol6” value came to 10.0 mg/mL and the “Sol7” value is over 10.0 mg/mL. Also, the Ki in series [1] was found to be 3.42 nM.

Take `CC(C)CC(=O)N[C@@H](C)C(=O)N1CCC[C@H]1C(=O)N[C@@H](CCC(=O)O)C(=O)N[C@@H](CCCCNC(=O)CCCCCNC(=O)CC[C@H](NC(=O)CCCCCCCCCCCCCCCCC(=O)O)C(=O)O)C(=O)N1CCC[C@H]1C(=O)N[C@@H](CCC(=O)O)C(=O)N[C@@H](CCC(=O)O)C(=O)N[C@@H](CC(=O)O)C(=O)N[C@@H](C)C(=O)N[C@H](C(=O)N1CCC[C@H]1C(=O)N[C@@H](CCC(=O)O)C(=O)N[C@@H](CCC(=O)O)C(=O)N[C@@H](CC(C)C)C(=O)N[C@@H](CCC(N)=O)C(=O)N[C@@H](CCCNC(=N)N)C(=O)N[C@@H](Cc1ccc(O)cc1)C(=O)N[C@@H](Cc1ccc(O)cc1)C(=O)N[C@H](C(=O)N[C@H](C(=O)N[C@@H](CC(C)C)C(=O)N[C@@H](CCCNC(=N)N)C(=O)N[C@@H](Cc1c[nH]cn1)C(=O)N[C@@H](Cc1ccc(O)cc1)C(=O)N[C@@H](Cc1ccc(O)cc1)C(=O)N[C@@H](CC(N)=O)C(=O)N[C@@H](Cc1c[nH]c2ccccc12)C(=O)N[C@@H](CC(C)C)C(=O)N[C@H](C(=O)N[C@@H](CCCNC(=N)N)C(=O)N[C@@H](CCC(N)=O)C(=O)N[C@@H](CCCNC(=N)N)C(=O)N[C@@H](Cc1ccc(O)cc1)C(N)=O)[C@@H](C)O)[C@@H](C)O)C(C)C)[C@@H](C)O` [Compound 148, N{alpha-4}-(3-methylbutanoyl)-N{epsilon-7}-(6-[(4S)-4-carboxy-4-(17-carboxyheptadecanamido)butanamido]hexanoyl)-[4A,7K,9E,13T,18Q,22V,23T,28Y,30W,31L]-hPYY(4-36)]: in “Solubility determination”, the “Sol6” value stood at 9.7 mg/mL and the “Sol7” value came out at 10.0 mg/mL. In addition, the inhibitory constant (Ki) in series [1] came out at 2.85 nM.
